Results on 1 compound are retold here after patent publication US20080293699A1, “Inhibitors of thapsigargin-induced cell death” (priority 2007, published 2008).

Molecules are shown by their SMILES. Entries after “also recorded” stand apart in the source; their conditions may differ.

For assay [1], the system named is CSM14.1 cells. The experiment in a line: Tunicamycin-induced cell death of CSM14.1 cells. The assay is classed as cell-based, rat. The procedure: CSM 14.1 cells were plated at a density of 3×10^3 cells/well in 96-well plates and incubated overnight. Cells were pre-incubated with 25 μM of each compound or 100 μM salubrinal for two hours, followed by […] tunicamycin treatment. 72 hours later, cell death rates were measured by flow cytometry analysis. Annexin V-negative population was considered as survivors. In FIG. 13, the white column represents 0.5% DMSO control showing 24% of survival, and the gray column 100 μM salubrinal. Black columns are data from each compound (25 μM) (compound numbers refer to the compounds in Table 9).
For the experiments shown in FIG. 18, undifferentiated CSM 14.1 cells were plated at 3,000 cells per well in 96-well plates (for the ATP assay) or at 1×10^4 cells per well in 24-well plates (for flow cytometry). The next day, cells were treated with DMSO (0.5%) or hit compounds 25 μM of a compound with 0.5% DMSO final concentration) for two hours, followed by treatment with various cell death-inducing reagents, including 15 μM Thapsigargin (TG) for 24 hrs, 10 μg/mL tunicamycin (TU) for 72 hrs, 2.5 μM staurosporine (STS) for 24 hrs, 50 μM VP16 for 48 hrs, or 30 ng/mL TNF plus 10 μg/mL cyclohexamide (CHX) for 24 hrs. Cellular ATP content was measured for staurosporine samples and TNF/CHX samples, normalizing data relative to cells treated with DMSO alone (the control) and presenting as a percentage of control. For measuring cell death resulting from treatment with tunicamycin and VP16, flow cytometry was used. All assays were performed in triplicate (mean ±SD).

Assay [2] has as its system CSM14.1 cells. The experiment in a line: Annexin V staining viability assay (flow cytometry), thapsigargin-treated undifferentiated CSM14.1 cells. The assay is classed as cell-based, rat. The following applies: hit compounds 25 μM, TG 15 μM. As for the experimental part:
Undifferentiated CSM14.1 cells were cultured as for FIG. 16. The next day, DMSO (a, b) (1% final volume), 100 μM Salubrinal (c, d) or 25 μM of hit compounds (1% final DMSO) was added. After two hrs, 15 μM TG was added to all wells except a and c. The plates were returned to culture for 24 hrs, then cells were recovered by trypsinization, transferred to 1.5 ml microcentrifuge tubes, and resuspended in 0.5 mL of Annexin V-binding solution. The percentage of annexin V-negative cells was determined by flow-cytometry (y-axis). Treatments and compounds were the same as in FIG. 16.
One method we have employed, for example, for confirming protection against TG-induced killing uses fluorochrome-conjugated annexin V staining with flow-cytometry analysis to evaluate the percentage cell viability by a method that is independent of the ATP content assay.
FIGS. 16 and 17 show the results of a secondary assay for evaluating the cytoprotective activity of the compounds. In FIG. 16, undifferentiated CSM14.1 cells were cultured at 10^4 cells per well of 24-well plates (Greiner Bio One). The next day, DMSO (a, b) (1% final volume), 100 μM Salubrinal (c, d) or 25 μM of hit compounds (1% final DMSO) was added. After two hrs, 15 μM TG was added to all wells except a and c. A conventional ATP assay was performed to measure survival rate. In FIG. 17 undifferentiated CSM14.1 cells were cultured at 10^4 cells per well of 24-well plates (Greiner Bio One). The next day, DMSO (a, b) (1% final volume), 100 μM Salubrinal (c, d) or 25 μM of hit compounds (1% final DMSO) was added. After two hrs, 15 μM TG was added to all wells except a and c. […] The percentage of annexin V-negative cells was determined by flow-cytometry (y-axis), using a FACSort instrument (Beckton-Dickinson). […]
7) The percentage of annexin V-negative cells was determined by flow-cytometry (y-axis), using a FACSort analysis facility in Burnham (Beckton & Dickinson)
(Flow cytometry measures light scatter and fluorescence of single cells or particles in a stream.)

What is called IC50 is the midpoint of a concentration-inhibition curve. With `CCN(CC)c1ccc(C2Nc3ccccc3NC3=C2C(=O)CC(c2ccccc2)C3)cc1` (stereo not shown) [Compound 5962123, 6-(4-diethylaminophenyl)-9-phenyl-5,6,8,9,10,11-hexahydrobenzo[c][1,5]benzodiazepin-7-one], in the assay with CSM14.1 cells [1] (CSM14.1 cells, annexin V flow cytometry where stated), the “Inhibition of tunicamycin-induced cell death” value is listed as “inhibits; also recorded: confirmed”. In the assay with CSM14.1 cells [1] (readout Annexin, CSM 14.1, compound ≦25 μM), the “Cytoprotective activity, stimulus Tunicamycin (Result)” value is on record as “+ (+indicates ≧50% rescue of cell viability relative to untreated cells not exposed to thapsigargin at compound concentration of ≦25 μM)”. Moreover, in the assay with CSM14.1 cells [1] (undifferentiated CSM14.1, ATP content assay, read-out: IC50, inhibition of tunicamycin-induced cell death), the IC50 worked out at 10 µM. Moreover, the “Protection against TG-induced cell death measured by annexin V staining” value in the assay with CSM14.1 cells [2] is recorded as “confirmed”.
